Source: US20230059487A1, “PHOTOSENSITIVE MATERIAL, TRANSFER FILM, MANUFACTURING METHOD OF CIRCUIT WIRING, MANUFACTURING METHOD OF TOUCH PANEL, AND PATTERN FORMING METHOD” (FUJIFILM Corporation, priority 2020, published 2023)
Where two headings read alike, the source gives them in different places. Blank lines part the entries; values can stand above or below the compound they belong to.

What was measured:
[1] = Measurement of molar absorption coefficients ε365, ε313 and ε365/ε313 in acetonitrile; format: physicochemical
Text: (Measurement and Evaluation of ε365 and ε365/ε313)
The ε365 and ε313 of the compound β are molar absorption coefficients measured by dissolving the compound β in acetonitrile. In a case where the compound β was insoluble in acetonitrile, a solvent for dissolving the compound β may be appropriately changed.

[2] = Measurement of pKa of compound β in ground state (acid titration); format: physicochemical
Text: (Measurement of pKa of Compound β in Ground State)

[3] = molar absorption coefficient at 365 nm in acetonitrile

SMILES: Cc1cc(C)c2c(C)cc(C)nc2c1 [2,4,5,7-Tetramethylquinoline]
- ε365 of Compound β [1, 3]: <10 (cm mol/L)^−1

SMILES: Cc1cc(C)c2ccccc2n1 [2,4-Dimethylquinolme]
- ε365 of Compound β [1, 3]: <10 (cm mol/L)^−1

SMILES: CCCCc1ncc(C)c2ccccc12 [Example 1-n-Butyl-4-methylisoquinoline, 1-n-Butyl-4-methylisoquinoline]
- ε365 of Compound β [1, 3]: <10 (cm mol/L)^−1

SMILES: CCCCc1nccc2ccccc12 [Example 1-n-Butylisoquinoline, 1-n-Butylisoquinoline]
- ε365 of Compound β [1, 3]: <10 (cm mol/L)^−1

SMILES: Clc1ccccn1 [Example 2-Chloropyridine, 2-Chloropyridine]
- ε365 of Compound β [1, 3]: <10 (cm mol/L)^−1

SMILES: COc1cc(C)nc2ccccc12 [Example 2-Methyl-4-methoxyquinoline, 2-Methyl-4-methoxyquinoline]
- ε365 of Compound β [1, 3]: <10 (cm mol/L)^−1

SMILES: Nc1ccncc1 [Example 4-Aminopyridine, 4-Aminopyridine]
- ε365 of Compound β [1, 3]: <100 (cm mol/L)^−1

SMILES: Cc1c2ccccc2nc2ccccc12 [Example 9-Methylacridine, 9-Methylacridine]
- ε365 of Compound β [1, 3]: 6300 (cm mol/L)^−1

SMILES: c1ccc(-c2c3ccccc3nc3ccccc23)cc1 [Example 9-Phenylacridine, 9-Phenylacridine]
- ε365 of Compound β [1]: >10000
- ε365 of Compound β ([1]; molar absorption coefficient at 365 nm): >10000
- ε365 of Compound β [1, 3]: >10000 (cm mol/L)^−1

SMILES: c1ccncc1 [Example B11, pyridine]
- ε365 of Compound β [1, 3]: <10 (cm mol/L)^−1

Second part, the compound after the results:

- ε365 of Compound β [1, 3]: <10 (cm mol/L)^−1
- pKa of Compound β in ground state [2]: 4.69
- pKa of Compound β in ground state ([2]; compound β alone): 4.69
- pKa of Compound β in ground state ([2]; compound β alone, ground state): 4.69
- pKa of Compound β in ground state ([2]; compound β in ground state): 4.69
- pKa of Compound β in ground state ([2]; compound β, ground state): 4.69
- pKa of Compound β in ground state ([2]; ground state): 4.69
SMILES: c1ccc2cnccc2c1 [Example B1, isoquinoline]

- ε365 of Compound β [1, 3]: <10 (cm mol/L)^−1
- pKa of Compound β in ground state [2]: 4.15
- pKa of Compound β in ground state ([2]; compound β alone): 4.15
- pKa of Compound β in ground state ([2]; compound β alone, ground state): 4.15
- pKa of Compound β in ground state ([2]; compound β in ground state): 4.15
- pKa of Compound β in ground state ([2]; compound β, ground state): 4.15
- pKa of Compound β in ground state ([2]; ground state): 4.15
SMILES: c1ccc2ncccc2c1 [Example B2, quinoline]

- ε365 of Compound β [1, 3]: 4900 (cm mol/L)^−1
- pKa of Compound β in ground state [2]: 4.67
- pKa of Compound β in ground state ([2]; compound β alone): 4.67
- pKa of Compound β in ground state ([2]; compound β alone, ground state): 4.67
- pKa of Compound β in ground state ([2]; compound β in ground state): 4.67
- pKa of Compound β in ground state ([2]; compound β, ground state): 4.67
- pKa of Compound β in ground state ([2]; ground state): 4.67
SMILES: c1ccc2nc3ccccc3cc2c1 [Example B3, acridine]

- ε365 of Compound β [1, 3]: <10 (cm mol/L)^−1
SMILES: Cc1nccc2ccccc12 [Example B6, 1-Me-isoquinoline]

- ε365 of Compound β ([1]; molar absorption coefficient at 365 nm in acetonitrile, listed as 2,4-Dimethylquinoline): <10 (cm mol/L)^−1
SMILES: Cc1cc(C)c2ccccc2n1 [Example B12, 2,4-dimethylquinoline]
